Results: US6565864B2, “Skin care product containing retinoids and phytoestrogens in a dual compartment package” (Unilever Home & Personal Care USA, a division of Conopco, …, priority 2000, dated 2003)
Like-named read-outs stand apart in the source and are kept apart here.

Key:
CRABP-2 = CRABP-2 protein expression in human adult fibroblasts (dot blot immunostaining) as a measure of retinoid activity; format: cell-based; settings: for CRABP-2 % as Control: control = 100%; for CRABP-2 production: human adult fibroblasts; for Synergy of phytoestrogen with retinoids (in words): soluble form, CRABP-2 in fibroblasts
Procedure: Human adult fibroblasts obtained from sun-protected inner arm of 25-30 year […] volunteer were used in this. Cells were grown in 1:1 DMEM/Hams F12 media containing 10% FBS, maintained at 37° C. in a 5% CO2 atmosphere under normal atmosphere oxygen tension. Third passage adult fibroblasts were grown in DMEM media with 10% FBS in 12-well plates at a seeding density of 2500 cells/ml/well. The cells at 80% confluence were rinsed in serum free and phenol red free (PRF) DMEM media twice. Pre-treatment with phyto-compounds for 4 hours was conducted and then dosed with retinoids and was incubated for 48 hours. After the incubation, the wells were washed twice with 1×PBS and the cell monolayer was harvested in 100 μl cell lysis buffer (contains 1×PBS, 1% Triton X, 0.5% sodium deoxycholate, 0.1% SDS containing protease inhibitor (10 mg/ml PMSF in isopropanol, 10 μl/ml). The suspension was spun at 14000 rpm for 10 minutes, the supernatant collected and an aliquot of this supernatant was used for protein quantification. Protein concentration was determined using Pierce protein kit. The remainder of 100 μl supernatant (cell lysate) was denatured in a mixture of 40 μl sample buffer (NOVEX) and 0.5% Beta mercaptoethanol (BME) and by boiling the sample for 5 minutes.
(b) Detection of Cellular Retinoic Acid Binding Protein 2 (CRABP-2)
These proteins act in regulating the intracellular concentration of retinoids by acting as both storage or shuttle proteins in retinoid metabolism. High or low levels of retinoids cause cell damage, including cell death, therefore regulation of constant levels of retinoids and its binding proteins are very critical for cell survival. The levels of this protein are regulated by the amount of retinoic acid within the cells. Higher cellular levels of retinoids increase the expression of CRABP-2. Therefore, the amount of this protein in the cells, is a measure of the retinoid activity of the cells. Skin cells contain high levels of CRABP-2 both in the epidermis and the dermis. CRABP-2 response to retinoid administration in fibroblasts in vitro is used as a reproducible measure of retinoid bioactivity that predict human skin responses. […] Increase in CRABP-2 is also associated with increased epidermal differentiation, and dermal retinoid action. Therefore, in these studies CRABP-2 expression of fibroblasts was used as a measure of retinoid activity leading to increased epidermal differentiation (skin conditioning and dry skin benefit) and dermal collagen and extracellular matrix synthesis (anti-aging, anti-wrinkling benefits).
To measure the levels of CRABP-2 in the fibroblasts, the equal amount of protein of cell supernatant were loaded onto nitrocellulose blots in a dot blot apparatus as instructed by the manufacturer, and immunostaining was carried out using monoclonal antibodies to CRABP-2 according to standard procedures. The CRABP-2 protein band was visualized in the Dot Blots using the chemiluminescence system obtained from Santa Cruz Biotechnology (SantaCruz, Calif.). The bands in the film were quantitated by dens tometric scanning, the data from the triplicate samples were calculated as % of control and expressed in the following tables as % increase over control (with control as 100%) +/−SD triplicates.

[1] = Stability of retinol in aqueous ethanol in the presence of phytoestrogenic flavonoids (OD 360 nm); format: physicochemical; settings: for Retinol degraded: 0.001 %
Procedure: Retinol was dissolved as a 10% solution in aqueous ethanol (1:1 water:ethanol). This solution was diluted to 0.001%, or approximately 30 μM). This solution gave an OD of about 0.35 absorption unit at 360 nm in a 96 well plate spectrophotometer.
Aqueous ethanolic stock solutions of the genistein, daidzein were prepared as 0.1%, 0.01% or 0.001%. To 200 μl of 0.001% retinol solution in a 96 well plate was added 20 μl of the flavonoid (i.e. 1-10 dilution) giving a final flavonoid concentration of 0.01, 0.001 and 0.0001%. The plates were mixed and an initial OD reading was taken at 360 nm. The plates were incubated at room temperature in the dark for up to 2 days and subsequent readings were taken at 8, 24 and 48 hours. The OD readings at these time points were normalized to the 0 time point reading. The retinol stability was expressed as % of retinol (OD reading) at 0 time.
The following tables show the effect of genistein and daidzein on destabilizing retinol. The experiment was done as described in methods section. The OD readings from duplicate measurements were averaged and given here.

[2] = 100 nM retinoid alone, 48 hours

CCCCCCCCCCCCCCCC(=O)OC/C=C(C)/C=C/C=C(C)/C=C/C1=C(C)CCCC1(C)C [Retinyl Palmitate]
CRABP-2 % as Control (CRABP-2; 100 nM retinoid alone): 434 +/− 177%
CRABP-2 production (CRABP-2; [2]): 1.26 +/− 0.51

O=c1c(-c2ccc(O)cc2)coc2cc(O)ccc12 [Daidzein]
CRABP-2 % as Control (CRABP-2; 1 μM phytoestrogen alone): 513 +/− 227%
CRABP-2 production (CRABP-2; 1 μM phytoestrogen alone): 1.49 +/− 0.66
Synergy of phytoestrogen with retinoids (in words) (CRABP-2): stimulate retinoid activity in a synergistic manner
Effect of the flavonoid on retinol stability (in words) [1]: marked increases in the instability of retinol

CC(=O)OC/C=C(C)/C=C/C=C(C)/C=C/C1=C(C)CCCC1(C)C [Retinyl Acetate]
CRABP-2 % as Control (CRABP-2; 100 nM retinoid alone): 209 +/− 118%
CRABP-2 production (CRABP-2; [2]): 0.60 +/− 0.32

CC1=C(/C=C/C(C)=C/C=C/C(C)=C/CO)C(C)(C)CCC1 [Retinol]
Retinol degraded ([1]; 8 h): 8%
Retinol degraded ([1]; 24 h): 14%
Retinol degraded ([1]; 48 h): 19%

CC1=C(/C=C/C(C)=C/C=C/C(C)=C/C(=O)O)C(C)(C)CCC1 [Retinoic acid, reference compound]
CRABP-2 % as Control (CRABP-2; 1 nM retinoid alone): 335 +/− 162%
CRABP-2 production (CRABP-2; 1 nM retinoid alone, 48 hours): 0.97 +/− 0.47
CRABP-2 % as Control (CRABP-2; 10 nM retinoid alone): 428 +/− 101%
CRABP-2 production (CRABP-2; 10 nM retinoid alone, 48 hours): 1.24 +/− 0.29

CCCCC/C=C\C/C=C\CCCCCCCC(=O)OC/C=C(C)/C=C/C=C(C)/C=C/C1=C(C)CCCC1(C)C [Retinyl Linoleate]
CRABP-2 % as Control (CRABP-2; 100 nM retinoid alone): 181 +/− 110%
CRABP-2 production (CRABP-2; [2]): 0.52 +/− 0.3

O=c1c(-c2ccc(O)cc2)coc2cc(O)cc(O)c12 [Genistein]
CRABP-2 stimulation (in words) (CRABP-2; 1 μM alone, delivered in DMSO: ethanol): stimulated CRABP-2 significantly
CRABP-2 % as Control (CRABP-2; 1 μM phytoestrogen alone): 655 +/− 247%
CRABP-2 production (CRABP-2; 1 μM phytoestrogen alone): 1.9 +/− 0.71
Synergy of phytoestrogen with retinoids (in words) (CRABP-2): stimulate retinoid activity in a synergistic manner
Effect of the flavonoid on retinol stability (in words) ([1]; 0.0001-0.01% flavonoid with 0.001% retinol): marked increases in the instability of retinol
